Among the data in ChEMBL document CHEMBL3044906, “Synthesis and blood glucose lowering activity of some novel benzenesulfonylthiourea derivatives substituted with 6-aryl-4,5-dihyropyridazin-3(2H)-ones” (2012) are inhibition in vivo, Activity and inhibition values, retold here.

As usually defined, the inhibition in vivo is the share of the control response that was lost under treatment.

Molecules are shown by their SMILES. Calls of active or inactive are those of the source. The rule behind the calls is not given here.

For experiment [1], the system named is Rattus norvegicus. The experiment can be described thus: Antihyperglycemic activity in Rattus norvegicus Wistar albino (rat) assessed as reduction in blood glucose level at 20 mg/kg, po administered 30 min before 3 g/kg, po glucose challenge by oral glucose tolerance test. It counts as functional.
Experiment [2] has as its system Rattus norvegicus. The experiment can be described thus: Antihyperglycemic activity in Rattus norvegicus Wistar albino (rat) assessed as blood glucose level at 20 mg/kg, po administered 30 min before 3 g/kg, po glucose challenge by oral glucose tolerance test (reference value: 149 +/- 6.3 mg/dl). The experiment is classed as functional.

As to `O=C1CCC(c2ccc(Cl)cc2)=NN1c1ccc(S(=O)(=O)NC(=S)Nc2ccccc2)cc1`, in experiment [1], the inhibition in vivo at 20 mg/kg amounted to 4.7%. The Activity in experiment [2] was found to be 148 mg/dL. In the case of `CCCNC(=S)NS(=O)(=O)c1ccc(N2N=C(c3ccc(OC)cc3)CCC2=O)cc1`, the inhibition in vivo at 20 mg/kg in experiment [1] is 37.1%. For the same compound, in experiment [2], the Activity was 132 mg/dL.

With `O=C1CCC(c2ccc(Cl)cc2)=NN1c1ccc(S(=O)(=O)NC(=S)NCc2ccccc2)cc1`, the inhibition in vivo at 20 mg/kg in experiment [1] stood at 38.8%. In addition, the Activity in experiment [2] was found to be 128.5 mg/dL. On to `O=C1CCC(c2ccc(-c3ccccc3)cc2)=NN1c1ccc(S(=O)(=O)NC(=S)Nc2ccccc2)cc1`, for which, in experiment [1], the inhibition entry was “inactive”. Moreover, the Activity in experiment [2] was 166 mg/dL. On to `O=C1CCC(c2ccc(Oc3ccccc3)cc2)=NN1c1ccc(S(=O)(=O)NC(=S)NCc2ccccc2)cc1`, for which, in experiment [1], the inhibition in vivo at 20 mg/kg came to 3%. The Activity in experiment [2] was 147.5 mg/dL. With `CCCNC(=S)NS(=O)(=O)c1ccc(N2N=C(c3ccc(C)cc3)CCC2=O)cc1`, in experiment [1], the inhibition in vivo at 20 mg/kg was determined as 30.9%. Further, in experiment [2], the Activity worked out at 134.5 mg/dL. In the case of `Cc1ccc(C2=NN(c3ccc(S(=O)(=O)NC(=S)NCc4ccccc4)cc3)C(=O)CC2)cc1`, the inhibition in vivo at 20 mg/kg in experiment [1] came out at 21.3%. Further, in experiment [2], the Activity turned out to be 136 mg/dL. With `CCCNC(=S)NS(=O)(=O)c1ccc(N2N=C(c3ccc(Cl)cc3)CCC2=O)cc1`, in experiment [1], the inhibition in vivo at 20 mg/kg is 32.7%. In addition, the Activity in experiment [2] is 132.5 mg/dL. As to `CCCNC(=S)NS(=O)(=O)c1ccc(N2N=C(c3ccccc3)CCC2=O)cc1`, the inhibition entry in experiment [1] is “inactive”. Further, the Activity in experiment [2] came to 160 mg/dL. Take `COc1ccc(Cl)cc1C(=O)NCCc1ccc(S(=O)(=O)NC(=O)NC2CCCCC2)cc1` [GLYBURIDE]: the Activity in experiment [2] was found to be 94.3 mg/dL. As to `CCCNC(=S)NS(=O)(=O)c1ccc(N2N=C(c3ccc(Oc4ccccc4)cc3)CCC2=O)cc1`, the inhibition entry in experiment [1] was “inactive”. Besides, in experiment [2], the Activity was found to be 152 mg/dL.

Turning to `O=C1CCC(c2ccc(-c3ccccc3)cc2)=NN1c1ccc(S(=O)(=O)NC(=S)NCc2ccccc2)cc1`, the inhibition in vivo at 20 mg/kg in experiment [1] amounted to 24.8%. Moreover, the Activity in experiment [2] is 137.5 mg/dL. As to `O=C1CCC(c2ccccc2)=NN1c1ccc(S(=O)(=O)NC(=S)NCc2ccccc2)cc1`, the inhibition in vivo at 20 mg/kg in experiment [1] stood at 26.6%. Further, the Activity in experiment [2] came to 139 mg/dL. For `COc1ccc(C2=NN(c3ccc(S(=O)(=O)NC(=S)NCc4ccccc4)cc3)C(=O)CC2)cc1`, in that order: 5.6% and 152 mg/dL. For `COc1ccc(C2=NN(c3ccc(S(=O)(=O)NC(=S)Nc4ccccc4)cc3)C(=O)CC2)cc1`, the inhibition entry in experiment [1] is “inactive”. The Activity in experiment [2] is 170.5 mg/dL. Turning to `CCc1ccc(C2=NN(c3ccc(S(=O)(=O)NC(=S)NCc4ccccc4)cc3)C(=O)CC2)cc1`, the inhibition in vivo at 20 mg/kg in experiment [1] came out at 3.8%. In addition, in experiment [2], the Activity came to 148 mg/dL.
